Values after ≈ are worked out from the molar mass of the structure shown. “Also recorded” adds a separate entry of the source. Where two headings read alike, the source gives them in different places. Values belong to the compound of their own block, whether it stands above or below them.
Key:
[1] = target: T1, Chk2 (Homo sapiens, UniProt O96017); assay: Kinase activity measurement (K-LISA), Chk2; type: biochemical
T1 construct: purchased Upstate Biotechnology, Inc
Procedure: (§1) The K-LISA™ Chk-1/Chk2 Activity Kit was supplied by Calibiochem (Cat. No. CBA020). Chk1 and Chk2 are from Upstate Biotechnology, Inc., and C-Met, HER2, EGFR are from Sigma. The Chk Peptide ([…]) (SEQ ID NO: 1) is from Cell Signaling, Inc., (Beverly, Mass., USA), and is stored at −70° C.
(§2) Kinase activity measurements: Enzyme, sample, Chk peptide, 5 μm ATP, and reaction buffer are added to the holes of biotinylated reaction plates. After the reaction is terminated with a stop buffer, the contents are discarded, replaced with 100 μl/hole of serine kinase antibody, to detect phosphorylation, and HRP-labeled goat-anti-rabbit IgG is added and incubated at room temperature for 1 hour. TMB reaction is conducted to determine substrate phosphorylation, with proper controls. OD450 is measured using VERSAmax (Sunnyvale, Calif., USA). The rate of inhibition is calculated as the follows: Rate of Inhibition (I)=(reaction hole OD Value−OD value of Enzyme-free control)/(OD value of negative control−OD value of enzyme-free control)×100%.

[2] = tested on: Mouse Lung Cancer (3LL); assay: In vitro anti-cancer cell activity, 3LL; type: cell-based; conditions: read-out: In vitro anti-cancer cell activities IC50, Mouse Lung Cancer (3LL)
Procedure: (§3) Some of the above compounds are tested in vitro or in vivo for their anti-cancer or anti-tumor activities, as well as cellular toxicity tests using SRB and MTT methods. The in vitro anti-cancer effects on human cancer HT-29 and mouse lung cancer cell 3LL are summarized in Table 1, and the effects on treating transplanted human colon cancer […] on nude mice are summarized in Table 2.

[3] = tested on: Human colon cancer HT-29; assay: In vitro anti-cancer cell activity, HT-29; type: cell-based; conditions: read-out: In vitro anti-cancer cell activities IC50, Human colon cancer HT-29
Procedure: as §3

[4] = tested on: HT-29 Cell line; assay: SRB cell multiplication test, sensitizing to cytotoxic antitumor drugs; conditions: for sensitizing effects on cytotoxic antitumor drugs at the cellular level (in words): DDP, 5-fu, pemetrexed, oxaliplatin as named in the sentence
Procedure: 3.2 Cell Lines: HT-29 Cell line (from ATCC).
Test Protocol: The effects of the compounds on cancer cell multiplication was measured using Sulforhodamine B (SRB). Specifically, log phase cells are inoculated into the holes of 96-hole culture plates, allowed to grow using the wall-adhesion procedure at 37° C. under 5% CO2. The test compound at 9 different concentrations were added, each concentration in duplicate, with appropriate saline water and cell-less controls. The cells are cultured for a further 72 hours, and fixed with TCA, and SRB is added for staining, and washed, and air-dried. After adding the Tris solution, the OD value was measured at 510 nm using a Spectra Max 190. The rate of inhibition is calculated according to the formula below: Rate of Inhibition=(ODcontrol−ODdrug)/ODcontrol×100%.
The IC50 is calculated based on the above ratios.

[5] = tested on: human liver cancer QGY-7701; assay: MTT cytotoxicity, QGY-7701; type: cell-based
Procedure: (§4) Cell lines: human low differentiation stomach cancer BGC-823, human liver cancer QGY-7701, mouse lung cancer 3LL.
(§5) Experimental Details: The cyto-toxicity of XC608 is measured using the MTT method. Specifically: (1) cell culture: (i) frozen cells are removed from liquid nitrogen, rapidly thawed in 37° C. water bath; added to 6 ml DMEM culture medium in a 10 ml centrifuge tubes under sterile conditions, centrifuged at 1000 rpm for 5 min., with the supernatant removed. To the sediment is added 5-6 ml of DMEM medium, and re-suspended and cultured overnight at 37° C. (ii) The cells are centrifuged, washed twice with PBS, and treated with 3-4 drops of trypsin solution for about 3 minute at 37° C., and monitored under microscope to ensure that all cells are separated from the culture tube walls, and re-suspended in additional DMEM medium. […] (2) Test compound preparation: XC608 and XC302 are dissolved in PBS and serial diluted to 1000, 100, 10, 1, 0.1 and 0.01 μg/ml. (3) The prepared test compound solution is added to the holes of a 96-hole culture plate, 10 μl/hole, with two holes per concentration point, and 10 μl PBS as control. (4) Prepare a suspension of log phase cell in a DMEM medium containing 10% new born bovine serum with a cell concentration of 2×10^5/ml.
(§6) (5) add 90 μl cell suspension to each of the holes containing the test compound or control. […]

[6] = tested on: mouse lung cancer 3LL; assay: MTT cytotoxicity, 3LL; type: cell-based; conditions: 48 hours
Procedure: as §4, §5, §6

[7] = tested on: human low differentiation stomach cancer BGC-823; assay: MTT cytotoxicity, BGC-823; type: cell-based
Procedure: as §4, §5, §6

[8] = tested on: human colon cancer HT-29; assay: Nude mice transplanted with human colon cancer HT-29, XC608 with ADR and 5-fu; type: in vivo; conditions: HT-29 in nude mice
Procedure: (§7) Nude mice transplanted with human colon cancer HT-29 and SW-620 and breast cancer MDA-MB-231 are tested using XC608 alone and in combination with ADR and 5-fu.

[9] = target: T2, HER2 (Homo sapiens, UniProt P04626); assay: Kinase activity measurement, HER2; type: biochemical
T2 construct: purchased Sigma
Procedure: as §1, §2

[10] = target: T3, c-Met (Homo sapiens, UniProt P08581); assay: Kinase activity measurement, c-Met; type: biochemical
T3 construct: purchased Sigma
Procedure: as §1, §2

[11] = target: T4, Chk1 (Homo sapiens, UniProt O14757); assay: Kinase activity measurement (K-LISA), Chk1; type: biochemical
T4 construct: purchased Upstate Biotechnology, Inc
T4 sequence (O14757 1-476): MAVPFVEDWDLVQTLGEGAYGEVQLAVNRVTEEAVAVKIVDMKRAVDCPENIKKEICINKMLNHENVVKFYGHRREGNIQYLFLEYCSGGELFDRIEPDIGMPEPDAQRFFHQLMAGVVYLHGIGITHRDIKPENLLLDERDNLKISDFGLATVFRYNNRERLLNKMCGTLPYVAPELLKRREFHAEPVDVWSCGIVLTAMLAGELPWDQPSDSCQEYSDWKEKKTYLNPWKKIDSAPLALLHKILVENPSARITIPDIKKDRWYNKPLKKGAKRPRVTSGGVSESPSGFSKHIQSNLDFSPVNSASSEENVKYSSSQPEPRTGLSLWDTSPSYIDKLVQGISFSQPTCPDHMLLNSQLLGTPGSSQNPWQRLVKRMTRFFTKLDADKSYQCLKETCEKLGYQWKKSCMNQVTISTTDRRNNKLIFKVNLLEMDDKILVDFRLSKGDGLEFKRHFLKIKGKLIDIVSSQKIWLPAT
Procedure: The K-LISA™ Chk-1/Chk2 Activity Kit was supplied by Calibiochem (Cat. No. CBA020). Chk1 and Chk2 are from Upstate Biotechnology, Inc., and C-Met, HER2, EGFR are from Sigma.
as §2, with “After” for “Kinase activity measurements: Enzyme, sample, Chk peptide, 5 μm ATP, and reaction buffer are added to the holes of biotinylated reaction plates. After”

[12] = tested on: cdc2 phosphorylation; assay: cdc2 phosphorylation induced by topoisomerase I; type: cell-based
Source text: The effects of XC608 on the activity of protein kinases Chk1, Chk2 and c-met, and on cells entering cell cycle after drug-induced DNA damages and cellular reactions to DNA damages are studied.

[13] = tested on: human colon cancer SW-620; assay: Nude mice transplanted with human colon cancer SW-620, XC608 with ADR and 5-fu; type: in vivo; conditions: SW-620 in nude mice
Procedure: as §7

[14] = target: T5, EGFR (Homo sapiens, UniProt P00533); assay: Kinase activity measurement, EGFR; type: biochemical
T5 construct: purchased Sigma
Procedure: as §1, §2

[15] = Homo sapiens, HT-29, 72 h, read-out: IC50 Drug alone
[16] = read-out: IC50 +10 nM AZD7762, HT-29, SRB, 72 hours, drug +10 nM AZD7762
[17] = read-out: IC50 +100 nM AZD7762, HT-29, SRB, 72 hours, drug +100 nM AZD7762
[18] = read-out: IC50 +1 μM XC608, HT-29, SRB, 72 hours, drug +1 μM XC608
[19] = read-out: IC50 Drug alone, HT-29, SRB, 72 hours, drug alone

T1 sequence (O96017 whole entry): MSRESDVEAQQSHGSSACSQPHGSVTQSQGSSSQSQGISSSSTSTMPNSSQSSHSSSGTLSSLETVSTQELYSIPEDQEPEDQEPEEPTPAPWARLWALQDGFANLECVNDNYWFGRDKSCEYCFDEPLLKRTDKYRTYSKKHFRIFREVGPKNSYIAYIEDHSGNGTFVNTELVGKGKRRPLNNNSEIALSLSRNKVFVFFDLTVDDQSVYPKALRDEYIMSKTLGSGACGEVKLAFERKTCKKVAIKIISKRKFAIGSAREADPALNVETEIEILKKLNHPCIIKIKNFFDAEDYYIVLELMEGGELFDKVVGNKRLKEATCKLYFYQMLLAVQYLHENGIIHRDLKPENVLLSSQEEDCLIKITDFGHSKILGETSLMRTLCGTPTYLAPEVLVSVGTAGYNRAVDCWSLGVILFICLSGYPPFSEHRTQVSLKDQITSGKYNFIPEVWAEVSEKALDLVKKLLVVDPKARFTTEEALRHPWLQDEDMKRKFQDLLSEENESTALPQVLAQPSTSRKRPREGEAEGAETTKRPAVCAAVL
T3 sequence (P08581 25-1390): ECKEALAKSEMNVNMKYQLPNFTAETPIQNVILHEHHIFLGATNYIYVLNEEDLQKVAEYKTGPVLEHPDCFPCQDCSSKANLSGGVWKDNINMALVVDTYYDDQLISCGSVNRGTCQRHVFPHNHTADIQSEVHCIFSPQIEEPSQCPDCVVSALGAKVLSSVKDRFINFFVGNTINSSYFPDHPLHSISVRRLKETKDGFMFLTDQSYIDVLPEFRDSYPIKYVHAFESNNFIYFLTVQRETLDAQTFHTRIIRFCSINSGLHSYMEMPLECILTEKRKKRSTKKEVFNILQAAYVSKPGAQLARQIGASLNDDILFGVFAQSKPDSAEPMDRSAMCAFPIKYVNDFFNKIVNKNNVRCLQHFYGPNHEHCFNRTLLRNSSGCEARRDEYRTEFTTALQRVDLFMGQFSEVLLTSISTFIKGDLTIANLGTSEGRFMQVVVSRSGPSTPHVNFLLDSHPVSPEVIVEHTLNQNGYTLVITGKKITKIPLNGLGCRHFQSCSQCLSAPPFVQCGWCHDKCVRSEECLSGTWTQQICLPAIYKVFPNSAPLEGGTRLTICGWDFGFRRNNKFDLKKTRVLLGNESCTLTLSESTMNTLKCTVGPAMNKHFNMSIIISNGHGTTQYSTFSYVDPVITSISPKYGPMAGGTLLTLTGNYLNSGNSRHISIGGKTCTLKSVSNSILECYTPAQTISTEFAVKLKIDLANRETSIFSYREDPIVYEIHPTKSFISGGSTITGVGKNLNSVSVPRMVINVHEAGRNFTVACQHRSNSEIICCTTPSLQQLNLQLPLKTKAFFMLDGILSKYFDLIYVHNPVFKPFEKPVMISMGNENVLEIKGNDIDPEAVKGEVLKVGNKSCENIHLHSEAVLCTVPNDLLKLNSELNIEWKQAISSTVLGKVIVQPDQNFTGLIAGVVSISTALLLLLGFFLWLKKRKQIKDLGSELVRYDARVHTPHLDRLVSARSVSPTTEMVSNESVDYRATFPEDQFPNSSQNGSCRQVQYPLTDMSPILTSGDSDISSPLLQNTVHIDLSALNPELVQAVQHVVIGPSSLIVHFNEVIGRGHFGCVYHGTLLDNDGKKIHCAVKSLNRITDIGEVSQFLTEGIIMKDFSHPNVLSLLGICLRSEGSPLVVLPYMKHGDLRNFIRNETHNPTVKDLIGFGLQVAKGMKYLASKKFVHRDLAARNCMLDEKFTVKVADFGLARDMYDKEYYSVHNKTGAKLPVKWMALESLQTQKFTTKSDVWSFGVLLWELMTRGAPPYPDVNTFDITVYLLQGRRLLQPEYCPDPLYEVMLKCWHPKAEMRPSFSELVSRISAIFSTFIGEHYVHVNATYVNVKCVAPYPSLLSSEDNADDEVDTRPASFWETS
T5 sequence (P00533 25-1210): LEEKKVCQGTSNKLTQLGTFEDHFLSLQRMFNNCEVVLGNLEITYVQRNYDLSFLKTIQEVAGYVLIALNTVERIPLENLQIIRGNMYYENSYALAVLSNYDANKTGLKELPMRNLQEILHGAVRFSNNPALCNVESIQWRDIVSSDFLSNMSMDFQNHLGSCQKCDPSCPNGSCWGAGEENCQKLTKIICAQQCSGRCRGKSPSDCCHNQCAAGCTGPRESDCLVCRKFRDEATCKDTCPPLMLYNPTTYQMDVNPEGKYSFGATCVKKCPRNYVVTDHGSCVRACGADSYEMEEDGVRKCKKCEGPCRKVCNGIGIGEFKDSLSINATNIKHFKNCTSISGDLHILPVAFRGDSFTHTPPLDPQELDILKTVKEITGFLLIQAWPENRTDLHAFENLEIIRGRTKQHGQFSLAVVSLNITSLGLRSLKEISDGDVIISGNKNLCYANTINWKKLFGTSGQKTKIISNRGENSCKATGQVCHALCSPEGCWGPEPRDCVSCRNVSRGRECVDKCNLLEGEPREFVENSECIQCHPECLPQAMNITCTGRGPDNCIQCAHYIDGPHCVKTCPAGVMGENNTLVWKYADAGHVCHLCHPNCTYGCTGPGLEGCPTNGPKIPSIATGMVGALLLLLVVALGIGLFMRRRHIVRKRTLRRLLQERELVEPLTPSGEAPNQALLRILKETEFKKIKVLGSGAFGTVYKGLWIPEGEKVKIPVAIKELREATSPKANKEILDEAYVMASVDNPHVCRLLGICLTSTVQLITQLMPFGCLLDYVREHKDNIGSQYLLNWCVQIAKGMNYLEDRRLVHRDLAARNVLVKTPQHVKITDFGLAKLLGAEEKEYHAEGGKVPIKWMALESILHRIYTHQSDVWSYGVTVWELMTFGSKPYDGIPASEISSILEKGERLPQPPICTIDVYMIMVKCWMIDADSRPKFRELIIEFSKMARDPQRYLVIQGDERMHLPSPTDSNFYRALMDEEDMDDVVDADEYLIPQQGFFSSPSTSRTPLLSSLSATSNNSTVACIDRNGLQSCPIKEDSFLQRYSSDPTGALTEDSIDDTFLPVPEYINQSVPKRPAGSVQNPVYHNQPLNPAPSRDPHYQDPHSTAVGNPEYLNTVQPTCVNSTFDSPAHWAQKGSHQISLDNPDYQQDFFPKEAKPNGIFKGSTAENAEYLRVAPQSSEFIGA
T2 sequence (P04626 23-1255): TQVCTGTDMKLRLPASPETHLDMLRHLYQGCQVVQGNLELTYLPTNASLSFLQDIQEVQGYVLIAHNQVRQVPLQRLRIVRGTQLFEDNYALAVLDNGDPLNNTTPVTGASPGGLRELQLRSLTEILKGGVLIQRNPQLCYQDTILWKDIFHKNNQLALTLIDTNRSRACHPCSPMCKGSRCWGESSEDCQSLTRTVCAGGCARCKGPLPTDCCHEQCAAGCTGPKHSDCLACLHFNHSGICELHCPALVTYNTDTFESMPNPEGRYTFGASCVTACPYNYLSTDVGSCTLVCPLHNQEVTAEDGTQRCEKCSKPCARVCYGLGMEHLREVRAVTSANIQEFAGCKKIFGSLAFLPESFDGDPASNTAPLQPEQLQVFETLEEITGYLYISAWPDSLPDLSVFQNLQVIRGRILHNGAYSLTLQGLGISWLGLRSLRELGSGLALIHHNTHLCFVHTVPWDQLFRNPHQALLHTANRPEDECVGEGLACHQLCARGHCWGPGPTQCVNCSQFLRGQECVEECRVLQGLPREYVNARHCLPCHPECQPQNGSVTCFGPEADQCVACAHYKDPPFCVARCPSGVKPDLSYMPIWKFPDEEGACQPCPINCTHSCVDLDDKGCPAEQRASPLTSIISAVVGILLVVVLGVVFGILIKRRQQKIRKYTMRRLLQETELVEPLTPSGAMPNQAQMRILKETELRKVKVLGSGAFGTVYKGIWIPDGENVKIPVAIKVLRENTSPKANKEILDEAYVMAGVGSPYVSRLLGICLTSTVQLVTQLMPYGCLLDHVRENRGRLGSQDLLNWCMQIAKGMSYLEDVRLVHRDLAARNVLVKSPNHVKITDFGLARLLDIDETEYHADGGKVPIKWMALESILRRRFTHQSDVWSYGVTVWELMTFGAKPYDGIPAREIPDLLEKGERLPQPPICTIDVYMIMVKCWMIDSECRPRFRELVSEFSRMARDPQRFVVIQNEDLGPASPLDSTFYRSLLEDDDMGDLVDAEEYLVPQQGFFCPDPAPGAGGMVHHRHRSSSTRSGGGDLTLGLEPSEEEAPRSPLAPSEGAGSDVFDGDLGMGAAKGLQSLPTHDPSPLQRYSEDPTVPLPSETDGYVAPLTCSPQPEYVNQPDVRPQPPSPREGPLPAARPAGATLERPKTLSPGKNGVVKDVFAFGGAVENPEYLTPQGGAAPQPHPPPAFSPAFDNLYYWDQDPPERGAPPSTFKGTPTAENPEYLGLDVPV

SMILES: NC(=O)Nc1cc(-c2cccc(F)c2)sc1C(=O)N[C@H]1CCCNC1 [AZD7762]
inhibition at 0.1 µM ([1]; 100 nM, read-out: Inhibition (%) (Mean ± SD) Chk2): 99%

IC50 [2]: 1880 nM | IC50 [3]: 1580 nM
SMILES: NC(=O)c1nnc(NC2CCCNC2)c2cc(-c3ccc(F)cc3)sc12 (centres unmarked) [Compound 1, 2-(4-fluorophenyl)-4-(3-piperidineamino)-thieno[2,3-d]pyridazine-7-carboxylic acid amide]

SMILES: O=c1[nH]cc(F)c(=O)[nH]1 [Compound 5-Fu, 5-fluorouracil]
IC50 [4, 15]: 1100 nM | IC50 [4, 16]: 1000 nM | IC50 [4, 17]: 300 nM | IC50 [4, 18]: 200 nM

SMILES: N.N.[Cl][Pt][Cl] [DDP, cisplatin]
IC50 [4, 16]: 5200 nM | IC50 [4, 17]: 1300 nM | IC50 [4, 18]: 1300 nM | IC50 [4, 19]: 7700 nM

SMILES: CC(=O)O[C@H]1C(=O)[C@@]2(C)[C@H]([C@H](OC(=O)c3ccccc3)[C@]3(O)C[C@H](OC(=O)[C@H](O)[C@@H](NC(=O)c4ccccc4)c4ccccc4)C(C)=C1C3(C)C)[C@]1(OC(C)=O)CO[C@@H]1C[C@@H]2O [Paclitaxel, paclitaxel]
IC50 [4, 15]: 3 nM | IC50 [4, 17]: 5 nM | IC50 [4, 18]: 2 nM

SMILES: CS(=O)(=O)O.CS(=O)(=O)O.O.O.c1cnc2ccc(Nc3nc(NC4CC4)c4nc[nH]c4n3)cc2c1 [XC302]
IC50, inhibition of cancer cell multiplication, QGY-7701 ([5]; 48 hours): 6.69 µg/mL | IC50, inhibition of cancer cell multiplication, 3LL [6]: 2.96 µg/mL | IC50, inhibition of cancer cell multiplication, BGC-823 ([7]; 48 hours): 4.77 µg/mL

inhibition at 1 µM ([1]; 1 μM, read-out: Inhibition (%) (Mean ± SD) Chk2): 90 ± 13.2% | effect on HER2 (in words) [9]: not apparent effect | inhibition at 1 µM ([9]; 1 μM, read-out: Inhibition (%) (Mean ± SD) HER2): 10.2 ± 1.3% | effect on c-met (in words) [10]: not apparent effect | inhibition at 1 µM ([10]; 1 μM, read-out: Inhibition (%) (Mean ± SD) c-Met): 15.9% | specificity for Chk1 (conclusion in words) [11]: specific Chk1 inhibitor | inhibition at 1 µM ([11]; 1 μM, read-out: Inhibition (%) (Mean ± SD) Chk1): 85 ± 11.1% | effect on cdc2 phosphorylation induced by topoisomerase I (in words) [12]: eliminates; also recorded: reduces | effect on EGFR (in words) [14]: not apparent effect | inhibition at 1 µM ([14]; 1 μM, read-out: Inhibition (%) (Mean ± SD) EGFR): 15.9 ± 5.3%
SMILES: NC(=O)c1nnc(N[C@H]2CCCNC2)c2cc(-c3cccc(F)c3)sc12 [XC608]
sensitizing effects on the treatment effects of ADR and 5-fu (in words) [8]: significant sensitizing effects | effect on activity of Chk2 (in words) [1]: clearly inhibits; also recorded: strongly inhibits | IC50 ([5]; Homo sapiens, QGY7701, 48 hours, read-out: IC50, inhibition of cancer cell multiplication, QGY-7701): 5.14 µg/mL (≈ 13.8 µM) | sensitizing effect on gemcitabine ([4]; cell cultures, gemcitabine): more than 20 times | sensitizing effects on cytotoxic antitumor drugs at the cellular level (in words) ([4]; gemcitabine): strong sensitizing effects | sensitizing effects on cytotoxic antitumor drugs at the cellular level (in words) ([4]; gemcitabine, listed as XC-608): effective in sensitizing | effect on activity of Chk1 (in words) [11]: clearly inhibits; also recorded: strongly inhibits | sensitizing effects on the treatment effects of ADR and 5-fu (in words) [13]: significant sensitizing effects | IC50 ([6]; Mus musculus, read-out: IC50, inhibition of cancer cell multiplication, 3LL): 1.05 µg/mL (≈ 2.83 µM) | IC50 ([7]; Homo sapiens, BGC-823, 48 hours, read-out: IC50, inhibition of cancer cell multiplication, BGC-823): 7.11 µg/mL (≈ 19.1 µM)

SMILES: O=C1[O][Pt]2([NH][C@@H]3CCCC[C@H]3[NH]2)[O]C1=O [oxaliplatin]
IC50 [4, 16]: 2500 nM | IC50 [4, 17]: 1100 nM | IC50 [4, 18]: 1300 nM | IC50 [4, 19]: 1600 nM
